From PubChem BioAssay (NCI)
Several values for one entry are separate records, joined by “and”; a condition that tells them apart may be missing. Equal values may be shown once.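 How tested: cells in 96-well plates exposed to compound for 48 hours at five concentrations. GI50: concentration for 50% inhibition of growth. TGI denotes the concentration required for complete inhibition of growth.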

Legend:
Test in all cases: inhibition of tumour cell growth, NCI panel, 48 h
EKVX NSCLC = system: EKVX NSCLC
MOLT-4 leukemia = system: MOLT-4 leukemia
U251 CNS = system: U251 CNS
SK-MEL-28 melanoma = system: SK-MEL-28 melanoma
DU-145 prostate = system: DU-145 prostate
RPMI-8226 leukemia = system: RPMI-8226 leukemia
SK-MEL-5 melanoma = system: SK-MEL-5 melanoma
NCI-H460 lung = system: NCI-H460 lung
SNB-19 CNS = system: SNB-19 CNS
CAKI-1 renal = system: CAKI-1 renal

Row | Compound | GI50 (EKVX NSCLC) | TGI (EKVX NSCLC) | GI50 (MOLT-4 leukemia) | TGI (MOLT-4 leukemia) [µM] | GI50 (U251 CNS) | TGI (U251 CNS) | GI50 (SK-MEL-28 melanoma) | TGI (SK-MEL-28 melanoma) | GI50 (DU-145 prostate) | TGI (DU-145 prostate) | GI50 (RPMI-8226 leukemia) | TGI (RPMI-8226 leukemia) | GI50 (SK-MEL-5 melanoma) [µM] | TGI (SK-MEL-5 melanoma) [µM] | GI50 (NCI-H460 lung) | TGI (NCI-H460 lung) | GI50 (SNB-19 CNS) [µM] | TGI (SNB-19 CNS) [µM] | GI50 (CAKI-1 renal) [µM] | TGI (CAKI-1 renal)
1 | Cc1cc(C)nc(SC2=C(Nc3cccc(Cl)c3)C(=O)N(Cc3ccccc3)C2=O)n1 | > 170 µM | > 170 µM | > 170 µM | > 170 | > 170 µM | > 170 µM | > 170 µM | > 170 µM | > 170 µM | > 170 µM | > 170 µM | > 170 µM | > 170 | > 170 | > 170 µM | > 170 µM | > 170 | > 170 | > 170 | > 170 µM
2 | O=C(O)c1cccc(CC(Br)C(=O)O)c1 (centres undefined) | – | > 100 µM | – | > 100 | – | > 100 µM | – | > 100 µM | – | > 100 µM | – | > 100 µM | – | > 100 | – | > 100 µM | – | > 100 | – | > 100 µM
3 | CC(C)=CCC/C(C)=C/CC/C(=C/COP(=O)(OCc1ccc([N+](=O)[O-])o1)N(C)CCCCCl)C(C)(C)C (centres undefined) | 6.48 µM | 22.4 µM | 1.82 µM | > 100 | 1.76 µM | 12 µM | 17.1 µM | 37.5 µM | 1.61 µM | 9 µM | 1.45 µM | 12.3 µM | 3.29 | 11.4 | 5 µM | 11.5 µM | 15.8 | 33.6 | 5.78 | 22 µM
4 | COC(=O)N/N=C(\C)C(CN1CCOCC1)C(c1ccccc1)c1cc2ccccc2oc1=O (centres undefined) | – | > 100 µM | – | > 100 | – | > 100 µM | – | > 100 µM | – | > 100 µM | – | 53.4 µM | – | > 100 | – | > 100 µM | – | > 100 | – | > 100 µM
5 | O=C1C=CC2(C=C1)CCN=c1c(O)c3c(c(O)c12)=NC=N3 | 17 µM and > 100 µM | 31.7 µM and > 100 µM | 21.7 µM and > 100 µM | > 100 | 10.6 µM and > 100 µM | 24.1 µM and > 100 µM | 15.6 µM and > 100 µM | 29.4 µM and > 100 µM | 14.7 µM and > 100 µM | 28 µM and > 100 µM | 12.2 µM and > 100 µM | 42.3 µM and > 100 µM | – | – | 12.2 µM and > 100 µM | 30 µM and > 100 µM | – | 27.1 | – | 27.5 µM and > 100 µM
6 | COc1cc(-c2nc3ccccc3s2)ccc1OCc1nc2n(n1)S(=O)(=O)c1ccccc1N2C | > 100 µM | > 100 µM | > 100 µM | > 100 | > 100 µM | > 100 µM | > 100 µM | > 100 µM | > 100 µM | > 100 µM | – | – | > 100 | > 100 | > 100 µM | > 100 µM | > 100 | > 100 | > 100 | > 100 µM
7 | COC(=O)c1c2c(c(C)[n+]([O-])c1C)C(=O)C(NCc1ccc(F)c(F)c1)=CC2=O | 1.84 µM | 4.39 µM | 2.44 µM | 4.86 | 2.06 µM | 5.85 µM | 4.11 µM | 13.8 µM | 2.66 µM | 7.61 µM | 2.05 µM | 5.6 µM | 1.14 | 2.38 | 2.13 µM | 10.2 µM | – | – | 2.39 | 10.5 µM
8 | Cc1ncc([N+](=O)[O-])n1CCNC(=O)CCn1ccnc1[N+](=O)[O-] | – | > 100 µM | – | > 100 | – | > 100 µM | – | > 100 µM | – | > 100 µM | – | > 100 µM | – | > 100 | – | > 100 µM | – | > 100 | – | > 100 µM
9 | CC[C@H](C)C(=O)O[C@H]1CCC=C2C=C[C@H](C)C(CCC3C[C@@H](O)CC(=O)O3)[C@H]21 (some centres undefined) | 12.5 µM | > 100 µM | – | > 100 | 1.82 µM | > 100 µM | 84.9 µM | > 100 µM | 74.8 µM | > 100 µM | – | – | 3.78 | 71.4 | 4.9 µM | > 100 µM | 18.4 | > 100 | 1.76 | 4.96 µM
10 | CNC1C(O)CC(OC2C/C=C(\C)C/C(C)=C/C=C/CCC(C)CNC(=O)/C=C/C=C/C2C)OC1C (centres undefined) | – | 3 µM | – | – | – | 1.03 µM | – | 2.97 µM | – | 2.79 µM | – | 0.548 µM | – | 1.22 | – | 0.317 µM | – | 8.31 | – | 1.6 µM
11 | C/C(=C\c1ccn(-c2ccc(N)cc2)n1)[C@@H]1C[C@@H]2O[C@]2(C)CCC[C@H](C)[C@H](O)[C@@H](C)C(=O)C(C)(C)[C@@H](O)CC(=O)O1 | 0.256 µM | > 50 µM | 0.0486 µM | > 50 | 0.0321 µM | > 50 µM | – | – | 0.0314 µM | 0.577 µM | 0.0214 µM | > 50 µM | 0.0308 | > 50 | 0.0202 µM | > 50 µM | 0.29 | > 50 | 0.202 | > 50 µM
12 | CN1CCN(Cc2ccc(NC(=O)c3cncc(C#Cc4c(N)ncc5cc(F)ccc45)c3)cc2C(F)(F)F)CC1 | 2.8 µM | 10.2 µM | – | – | 1.04 µM | 2.27 µM | 0.729 µM | 1.43 µM | 0.874 µM | 1.58 µM | 1.09 µM | 2.83 µM | 0.794 | 1.52 | 0.904 µM | 1.9 µM | 0.87 | 1.57 | 3.3 | 10.1 µM
